Measurements published in patent publication US11414438B2, “Silylethynyl hetaryl compounds as nitrification inhibitors” (BASF SE, priority 2018, dated 2022).

Test system: nitrification
Assay: inhibition of nitrification in soil incubation (ammonium and nitrate content after 14 days)
Conditions: compound at 0.1% of nitrogen N, 20° C., 10 mg ammoniumsulfate-N
Protocol: The compounds of the invention have been tested as follows in terms of the inhibition of nitrification:
100 g soil is filled into 500 ml plastic bottles (e.g. soil sampled from the field) and is moistened to 50% water holding capacity. The soil is incubated at 20° C. for two weeks to activate the microbial biomass. 1 ml test solution, containing the compound in the appropriate concentration (usually 0.3 or 1% of nitrogen N), or DMSO and 10 mg nitrogen in the form of ammoniumsulfate-N is added to the soil and everything mixed well. Bottles are capped but loosely to allow air exchange. The bottles are then incubated at 20° C. for 0 and 14 days.
For analysis 300 ml of a 1% K2SO4-solution is added to the bottle containing the soil and shaken for 2 hours in a horizontal shaker at 150 rpm. Then the whole solution is filtered through a filter (Macherey-Nagel Filter MN 807¼). Ammonium and nitrate content is then analyzed in the filtrate in an autoanalyzer at 550 nm (Merck, AA11).
The inhibition (NI @ a specified concentration) is calculated as follows: […]

Structure (SMILES) | NI @ 0.1%
C[Si](C)(C)C#Cc1ccccn1 [No. 1] | 54
C[Si](C)(C)C#Cc1ccc(Cl)cn1 [No. 10] | 61
C[Si](C)(C)C#Cc1cnccn1 [No. 12] | 71

Same assay, conditions: compound at 0.3% of nitrogen N, 20° C., 10 mg ammoniumsulfate-N

Structure (SMILES) | NI @ 0.3%
C[Si](C)(C)C#Cc1ccccn1 [No. 1] | 77
C[SiH](C)C#Cc1ccccn1 [No. 2] | 82
C[Si](C)(C#Cc1ccccn1)CCl.Cl [No. 3] | 80
CC(C)(C)[Si](C)(C)C#Cc1ccccn1 [No. 4] | 11
C[Si](C)(C#Cc1ccccn1)O[Si](C)(C)C#Cc1ccccn1 [No. 5] | 78
C[Si](C)(C#Cc1ccccn1)O[Si](C)(C)O[Si](C)(C)C#Cc1ccccn1 [No. 6] | 51
C[Si](C)(C#Cc1ccccn1)O[Si](C)(C)O[Si](C)(C)O[Si](C)(C)C#Cc1ccccn1 [No. 7] | 31
C[Si](C)(C#Cc1ccccn1)C[Si](C)(C)C#Cc1ccccn1 [No. 8] | 16
C[Si](C)(C#Cc1ccccn1)c1ccccc1 [No. 9] | 83
C[Si](C)(C)C#Cc1ccc(Cl)cn1 [No. 10] | 75
Cc1ccc(C#C[Si](C)(C)C)nc1 [No. 11] | 63
C[Si](C)(C)C#Cc1cnccn1 [No. 12] | 98

Same assay, conditions: compound at 1% of nitrogen N, 20° C., 10 mg ammoniumsulfate-N

Structure (SMILES) | NI @ 1%
C[SiH](C)C#Cc1ccccn1 [No. 2] | 94
C[Si](C)(C#Cc1ccccn1)CCl.Cl [No. 3] | 91
CC(C)(C)[Si](C)(C)C#Cc1ccccn1 [No. 4] | 28
C[Si](C)(C#Cc1ccccn1)O[Si](C)(C)C#Cc1ccccn1 [No. 5] | 83
C[Si](C)(C#Cc1ccccn1)O[Si](C)(C)O[Si](C)(C)C#Cc1ccccn1 [No. 6] | 75
C[Si](C)(C#Cc1ccccn1)O[Si](C)(C)O[Si](C)(C)O[Si](C)(C)C#Cc1ccccn1 [No. 7] | 63
C[Si](C)(C#Cc1ccccn1)C[Si](C)(C)C#Cc1ccccn1 [No. 8] | 43
C[Si](C)(C#Cc1ccccn1)c1ccccc1 [No. 9] | 80
Cc1ccc(C#C[Si](C)(C)C)nc1 [No. 11] | 77

Same assay, conditions: compound at 3% of nitrogen N, 20° C., 10 mg ammoniumsulfate-N

Structure (SMILES) | NI @ 3%
C[Si](C)(C)C#Cc1ccccn1 [No. 1] | 86
C[Si](C)(C)C#Cc1ccc(Cl)cn1 [No. 10] | 85

Test system: not listed separately
Assay: volatility: weight loss from open vials in the hood
Format: physicochemical
Conditions: 251 mg in 10 ml vials open in the hood
Protocol: The compounds of the invention have been tested in terms of their volatility. 251 mg of the compounds were provided in 10 ml vials open in the hood and tested in comparison to 5-chloro-2-ethynyl pyridine (Ref.-1). The weight loss was determined after 1 week.

Structure (SMILES) | % weight loss after 1 week [%]
C[Si](C)(C)C#Cc1ccc(Cl)cn1 [No. 10] | 8
C[Si](C)(C)C#Cc1cnccn1 [No. 12] | 24
C#Cc1ccc(Cl)cn1 [Ref.-1, 5-chloro-2-ethynyl pyridine, reference compound] | 53
